Measurements reported in ChEMBL document CHEMBL4177725, “Design and synthesis of novel pyrimidine analogs as highly selective, non-covalent BTK inhibitors” (Bioorg Med Chem Lett, 2018).
In brackets after ≈: the same amount, converted by molar mass. Each block holds one compound with its values, some of them ahead of it. Activity calls are given as the source filed them. The calls are words filed in the database; no cut-off is given here.

What was measured:
[1] = Stability in mouse microsomes; assay type: ADME, Microsome
[2] = Stability in human microsomes; assay type: ADME, Microsome
[3] = target: T1, Tyrosine-protein kinase BTK (Homo sapiens, UniProt Q06187); experiment: Inhibition of BTK (unknown origin) using FITC-labeled Srctide substrate and ATP by microfluidic mobility shift assay
[4] = target: Tyrosine-protein kinase SYK (Homo sapiens, UniProt P43405); experiment: Inhibition of SYK (unknown origin) using FITC-labeled Blk/Lyntide substrate and ATP by microfluidic mobility shift assay
[5] = target: T1, Tyrosine-protein kinase BTK; experiment: Inhibition of N-terminal DYKDDDDK tagged and biotinylated BTK activated form (unknown origin) using FITC-labeled Srctide substrate and ATP by microfluidic mobility shift assay
[6] = target: T1, Tyrosine-protein kinase BTK; experiment: Inhibition of His-tagged lambda phosphatase pre-treated N-terminal DYKDDDDK tagged and biotinylated BTK unactivated form (unknown origin) using FITC-labeled Srctide substrate and ATP by microfluidic mobility shift assay
[7] = Apparent permeability in human Caco2 cells; assay type: ADME, cell-based; details: Caco-2
[8] = Kinetic solubility in phosphate buffer at pH 7.4 incubated for 1 hr at room temperature by LC-UV or LC-MS/MS method; assay type: physicochemical; details: read-out: Kinetic_solubility
[9] = MRT (0 to infinity) in ICR mouse at 10 mg/kg, po; assay type: ADME, organism-based; details: in vivo
[10] = Clearance in ICR mouse at 2 mg/kg, iv; assay type: ADME, organism-based; details: in vivo
[11] = AUC (0 to t) in ICR mouse at 2 mg/kg, iv; assay type: ADME, organism-based; details: in vivo
[12] = Oral bioavailability in ICR mouse at 10 mg/kg; assay type: ADME, organism-based; details: in vivo
[13] = Apparent volume of distribution in ICR mouse at 2 mg/kg, iv; assay type: ADME, organism-based; details: in vivo, read-out: Vz
[14] = target: T1, Tyrosine-protein kinase BTK; experiment: Inhibition of anti-IgM antibody stimulated BTK Tyr223 autophosphorylation in human Ramos cells at 30 nM pre-incubated for 1 hr followed by anti-IgM stimulation for 10 mins by Western blotting; assay type: cell-based
[15] = AUC (0 to infinity) in ICR mouse at 10 mg/kg, po; assay type: ADME, organism-based; set-up: dose 10 mg/kg, time infinity, route oral; details: in vivo
[16] = Half life in ICR mouse at 2 mg/kg, iv; assay type: ADME, organism-based; details: in vivo
[17] = Tmax in ICR mouse at 2 mg/kg, iv; assay type: ADME, organism-based; details: in vivo
[18] = Tmax in ICR mouse at 10 mg/kg, po; assay type: ADME, organism-based; details: in vivo
[19] = AUC (0 to infinity) in ICR mouse at 2 mg/kg, iv; assay type: ADME, organism-based; set-up: dose 2 mg/kg, route intravenous, time infinity; details: in vivo
[20] = AUC (0 to t) in ICR mouse at 10 mg/kg, po; assay type: ADME, organism-based; details: in vivo
[21] = Cmax in ICR mouse at 2 mg/kg, iv; assay type: ADME, organism-based; set-up: dose 2 mg/kg, route intravenous; details: in vivo
[22] = Half life in ICR mouse at 10 mg/kg, po; assay type: ADME, organism-based; details: in vivo
[23] = MRT (0 to infinity) in ICR mouse at 2 mg/kg, iv; assay type: ADME, organism-based; details: in vivo
[24] = Cmax in ICR mouse at 10 mg/kg, po; assay type: ADME, organism-based; set-up: dose 10 mg/kg, route oral; details: in vivo
[25] = target: Voltage-gated inwardly rectifying potassium channel KCNH2 (Homo sapiens, UniProt Q12809); experiment: Inhibition of human ERG
[26] = target: T2, Tyrosine-protein kinase Tec (Homo sapiens) (UniProt P42680); experiment: Inhibition of N-terminal GST-fused human TEC catalytic domain (359 to 631 amino acids) at 0.3 uM
T2 sequence (whole entry): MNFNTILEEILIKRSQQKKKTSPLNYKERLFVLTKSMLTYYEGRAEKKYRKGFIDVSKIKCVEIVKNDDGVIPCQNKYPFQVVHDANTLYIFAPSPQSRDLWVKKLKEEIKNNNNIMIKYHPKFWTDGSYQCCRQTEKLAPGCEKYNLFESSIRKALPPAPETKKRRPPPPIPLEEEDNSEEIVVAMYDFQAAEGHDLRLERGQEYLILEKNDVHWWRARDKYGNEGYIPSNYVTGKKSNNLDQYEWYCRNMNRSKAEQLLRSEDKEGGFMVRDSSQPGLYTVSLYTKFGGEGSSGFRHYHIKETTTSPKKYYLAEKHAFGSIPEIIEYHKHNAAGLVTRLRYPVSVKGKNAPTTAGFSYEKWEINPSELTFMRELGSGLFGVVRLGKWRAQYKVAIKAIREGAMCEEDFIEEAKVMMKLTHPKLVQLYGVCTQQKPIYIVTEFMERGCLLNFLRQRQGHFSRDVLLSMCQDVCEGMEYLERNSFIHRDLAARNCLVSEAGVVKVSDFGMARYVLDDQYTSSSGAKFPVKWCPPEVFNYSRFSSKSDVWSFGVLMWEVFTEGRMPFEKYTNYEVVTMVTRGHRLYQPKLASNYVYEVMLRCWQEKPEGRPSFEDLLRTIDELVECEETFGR

Mus musculus = experiment: Inhibition of passive cutaneous anaphylaxis reaction in anti-DNP IgE sensitized mouse model of passive cutaneous anaphylaxis at 30 mg/kg, po dosed 46 hrs before DNP-BSA/dye mixture injection and measured after 30 mins; assay type: functional
[27] = target: T3, Cytoplasmic tyrosine-protein kinase BMX (Homo sapiens) (UniProt P51813); experiment: Inhibition of N-terminal GST-fused human full length BMX at 0.3 uM
T3 sequence (whole entry): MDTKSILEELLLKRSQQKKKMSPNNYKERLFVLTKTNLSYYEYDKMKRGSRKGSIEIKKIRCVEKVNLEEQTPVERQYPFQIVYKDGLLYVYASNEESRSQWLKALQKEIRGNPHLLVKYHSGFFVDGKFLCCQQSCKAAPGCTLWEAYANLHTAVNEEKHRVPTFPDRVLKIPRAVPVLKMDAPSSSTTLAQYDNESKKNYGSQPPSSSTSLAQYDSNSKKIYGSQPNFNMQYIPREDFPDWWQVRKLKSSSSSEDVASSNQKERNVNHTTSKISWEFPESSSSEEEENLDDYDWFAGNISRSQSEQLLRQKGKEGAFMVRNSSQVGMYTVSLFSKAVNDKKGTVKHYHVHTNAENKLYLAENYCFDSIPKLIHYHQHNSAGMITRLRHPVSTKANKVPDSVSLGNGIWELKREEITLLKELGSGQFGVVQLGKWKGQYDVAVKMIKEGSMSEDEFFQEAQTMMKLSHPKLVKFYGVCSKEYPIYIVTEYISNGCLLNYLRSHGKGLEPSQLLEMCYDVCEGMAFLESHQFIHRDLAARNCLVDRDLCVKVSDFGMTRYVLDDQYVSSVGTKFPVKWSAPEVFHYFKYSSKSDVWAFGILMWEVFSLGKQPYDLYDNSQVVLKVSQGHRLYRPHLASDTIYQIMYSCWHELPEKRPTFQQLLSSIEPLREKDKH

T1 sequence (Q06187 whole entry): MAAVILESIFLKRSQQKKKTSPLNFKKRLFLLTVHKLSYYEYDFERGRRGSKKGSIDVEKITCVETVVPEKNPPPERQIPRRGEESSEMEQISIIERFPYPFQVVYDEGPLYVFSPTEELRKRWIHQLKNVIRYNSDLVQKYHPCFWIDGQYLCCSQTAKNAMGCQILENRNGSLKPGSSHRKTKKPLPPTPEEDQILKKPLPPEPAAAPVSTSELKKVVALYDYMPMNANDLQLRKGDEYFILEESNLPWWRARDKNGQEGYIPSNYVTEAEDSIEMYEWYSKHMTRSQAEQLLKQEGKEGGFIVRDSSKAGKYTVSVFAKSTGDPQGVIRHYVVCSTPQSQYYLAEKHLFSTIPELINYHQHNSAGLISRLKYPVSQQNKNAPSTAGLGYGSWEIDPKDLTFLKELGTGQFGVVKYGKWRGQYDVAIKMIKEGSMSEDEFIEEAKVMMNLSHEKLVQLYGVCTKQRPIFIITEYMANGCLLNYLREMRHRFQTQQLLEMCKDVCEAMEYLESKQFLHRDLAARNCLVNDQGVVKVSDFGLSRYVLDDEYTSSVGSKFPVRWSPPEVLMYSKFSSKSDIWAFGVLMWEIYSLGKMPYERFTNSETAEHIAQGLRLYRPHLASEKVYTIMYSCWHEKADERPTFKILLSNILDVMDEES
Chain of Voltage-gated inwardly rectifying potassium channel KCNH2 (Q12809 whole entry, the tested form may be a part): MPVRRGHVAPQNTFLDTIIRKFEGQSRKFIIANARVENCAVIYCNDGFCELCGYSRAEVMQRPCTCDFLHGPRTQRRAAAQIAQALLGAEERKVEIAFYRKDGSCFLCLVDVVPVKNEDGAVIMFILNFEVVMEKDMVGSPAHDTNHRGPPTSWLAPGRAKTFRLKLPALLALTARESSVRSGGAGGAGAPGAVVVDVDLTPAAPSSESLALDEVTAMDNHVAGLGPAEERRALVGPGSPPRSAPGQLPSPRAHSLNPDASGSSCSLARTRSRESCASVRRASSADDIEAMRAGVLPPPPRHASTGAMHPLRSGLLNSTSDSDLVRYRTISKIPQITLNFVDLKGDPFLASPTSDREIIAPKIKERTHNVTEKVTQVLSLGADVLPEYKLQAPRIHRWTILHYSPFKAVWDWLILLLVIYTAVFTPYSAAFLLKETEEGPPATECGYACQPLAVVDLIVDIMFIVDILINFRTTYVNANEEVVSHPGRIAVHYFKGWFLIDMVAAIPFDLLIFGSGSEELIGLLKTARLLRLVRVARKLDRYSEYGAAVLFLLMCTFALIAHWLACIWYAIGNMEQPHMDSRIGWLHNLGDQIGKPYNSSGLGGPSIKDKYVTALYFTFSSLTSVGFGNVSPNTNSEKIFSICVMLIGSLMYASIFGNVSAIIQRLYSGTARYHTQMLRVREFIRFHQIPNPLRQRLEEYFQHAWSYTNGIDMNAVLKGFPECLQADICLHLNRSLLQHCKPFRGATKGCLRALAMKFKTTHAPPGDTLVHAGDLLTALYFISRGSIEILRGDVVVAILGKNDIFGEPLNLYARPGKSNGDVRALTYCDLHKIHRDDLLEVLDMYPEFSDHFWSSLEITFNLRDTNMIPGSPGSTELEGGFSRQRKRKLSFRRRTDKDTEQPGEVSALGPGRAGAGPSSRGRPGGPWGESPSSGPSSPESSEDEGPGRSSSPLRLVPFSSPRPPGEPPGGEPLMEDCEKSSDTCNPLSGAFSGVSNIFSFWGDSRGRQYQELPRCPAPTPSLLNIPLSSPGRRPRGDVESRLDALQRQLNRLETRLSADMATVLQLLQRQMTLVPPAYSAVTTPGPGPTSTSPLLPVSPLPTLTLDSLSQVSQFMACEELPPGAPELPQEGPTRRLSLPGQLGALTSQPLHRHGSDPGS

Stability [1]: Unstable
Stability [2]: Unstable
IC50 [3]: 440 to 450 nM
IC50 [4]: > 10 µM
Compound: Cc1c(NC(=O)c2ccc(C(C)(C)C)cc2)cccc1-c1ccnc(Nc2ccc3cn[nH]c3c2)n1

IC50 [5]: 5.3 nM
Compound: CN1CCN(c2ccc(Nc3nc(N)cc(-c4cccc(-n5ccc6cc(C7CC7)cc(F)c6c5=O)c4CO)n3)cc2)CC1

IC50 [5]: 10 nM
IC50 [6]: 0.4 nM
Papp [7]: 5.4 ×10⁻⁶ cm/s
Compound: CCn1cc(Nc2nc(N)cc(-c3cccc(-n4ccc5cc(C6CC6)cc(F)c5c4=O)c3CO)n2)cn1

IC50 [5]: 3.3 nM
IC50 [6]: 0.2 nM
solubility kinetic at 1 h [8]: 2.1 µM (≈ 1.15 µg/mL)
Papp [7]: 3.1 ×10⁻⁶ cm/s
Compound: Nc1cc(-c2cccc(-n3ccc4cc(C5CC5)cc(F)c4c3=O)c2CO)nc(Nc2cnn(CC(F)F)c2)n1

IC50 [5]: 39 nM
IC50 [6]: 2.5 nM
Compound: COc1ccc(Nc2nc(N)cc(-c3cccc(-n4ccc5cc(C6CC6)cc(F)c5c4=O)c3CO)n2)cc1

IC50 [5]: 2.6 nM
IC50 [6]: 0.2 nM
solubility kinetic at 1 h [8]: 4 µM (≈ 2.1 µg/mL)
Papp [7]: 3.7 ×10⁻⁶ cm/s
Compound: CC(C)n1cc(Nc2nc(N)cc(-c3cccc(-n4ccc5cc(C6CC6)cc(F)c5c4=O)c3CO)n2)cn1

IC50 [5]: 5.9 nM
Compound: CC(=O)c1cc(Nc2nc(N)cc(-c3cccc(-n4ccc5cc(C6CC6)cc(F)c5c4=O)c3CO)n2)cn1C

IC50 [5]: 245 nM
IC50 [6]: 13.9 nM
Compound: Cn1ccc(Nc2nc(N)cc(-c3cccc(-n4ccc5cc(C6CC6)cc(F)c5c4=O)c3CO)n2)n1

IC50 [5]: 12 nM
IC50 [6]: 0.6 nM
Papp [7]: 0.7 ×10⁻⁶ cm/s
Compound: Nc1cc(-c2cccc(-n3ccc4cc(C5CC5)cc(F)c4c3=O)c2CO)nc(Nc2cnn(C3(CO)CC3)c2)n1

Stability [1]: Unstable
Stability [2]: Unstable
IC50 [4]: > 10 µM
Compound: Cc1c(NC(=O)c2ccc(C(C)(C)C)cc2)cccc1-c1ccnc(Nc2ccc(C(=O)N3CCOCC3)cc2)n1

IC50 [5]: 62 nM
IC50 [6]: 17 nM
Compound: Cn1ccc(Nc2nc(N)cc(-c3cccc(-n4ccc5cc(C6CC6)cc(F)c5c4=O)c3CO)n2)c1

IC50 [5]: 20.2 nM
Compound: Cn1cc(Nc2nc(N)cc(-c3cccc(-n4ccc5cc(C6CC6)cc(F)c5c4=O)c3CO)n2)cc1C#N

Stability [1]: Unstable
Stability [2]: Unstable
IC50 [3]: 40 nM
IC50 [4]: > 10 µM
Compound: Cc1c(NC(=O)c2ccc(C(C)(C)C)cc2)cccc1-c1ccnc(Nc2ccc3[nH]ncc3c2)n1

IC50 [5]: 3.4 nM
solubility kinetic at 1 h [8]: 6.3 µM (≈ 3.39 µg/mL)
Papp [7]: 6.1 ×10⁻⁶ cm/s
Compound: Nc1cc(-c2cccc(-n3ccc4cc(C5CC5)cc(F)c4c3=O)c2CO)nc(Nc2cnn(CC3CC3)c2)n1

IC50 [5]: > 10000 nM
IC50 [6]: 309 nM
Compound: Nc1cc(-c2cccc(-n3ccc4cc(C5CC5)cc(F)c4c3=O)c2CO)nc(Nc2ccc(CN3CCOCC3)cc2)n1

MRT inf [9]: 1.91 h
clearance [10]: 9.67 mL/min/kg
AUC(0-t) [11]: 3460 ng·h/mL
IC50 [5]: 3.7 nM
bioavailability [12]: 73.7%
IC50 [6]: 0.4 nM
Vd [13]: 0.93 L/kg
solubility kinetic at 1 h [8]: 18 µM (≈ 8.96 µg/mL)
inhibition [14]: Active
AUC(0-inf) [15]: 12800 ng·h/mL
half-life [16]: 67.2 min
Tmax [17]: 4.98 min
Tmax [18]: 30 min
AUC(0-inf) [19]: 3480 ng·h/mL
AUC(0-t) [20]: 12700 ng·h/mL
Papp [7]: 6.3 ×10⁻⁶ cm/s
Cmax [21]: 2950 ng/mL
half-life [22]: 57.6 min
MRT inf [23]: 1.13 h
Cmax [24]: 4540 ng/mL
Compound: Cn1cc(Nc2nc(N)cc(-c3cccc(-n4ccc5cc(C6CC6)cc(F)c5c4=O)c3CO)n2)cn1

MRT inf [9]: 2.24 h
clearance [10]: 10.5 mL/min/kg
AUC(0-t) [11]: 3150 ng·h/mL
IC50 [5]: 2.8 nM
bioavailability [12]: 120%
Vd [13]: 1 L/kg
solubility kinetic at 1 h [8]: 9.8 µM (≈ 5.13 µg/mL)
inhibition [26]: 92%
inhibition [14]: Active
AUC(0-inf) [15]: 19100 ng·h/mL
half-life [16]: 65.4 min
Tmax [17]: 4.98 min
Tmax [18]: 60 min
AUC(0-inf) [19]: 3170 ng·h/mL
AUC(0-t) [20]: 18700 ng·h/mL
Papp [7]: 6.9 ×10⁻⁶ cm/s
Cmax [21]: 2260 ng/mL
half-life [22]: 78.6 min
MRT inf [23]: 1.36 h
inhibition [27]: 70%
Cmax [24]: 5940 ng/mL
Compound: Nc1cc(-c2cccc(-n3ccc4cc(C5CC5)cc(F)c4c3=O)c2CO)nc(Nc2cnn(C3CC3)c2)n1
inhibition (INH) [25]: Active
inhibition in vivo at 30 mg/kg (Mus musculus): 46%

IC50 [3]: 7300 nM
IC50 [4]: 0.36 µM
Compound: CC(C)(C)c1ccc(C(=O)Nc2cccc(-c3ccnc(Nc4ccc5cn[nH]c5c4)n3)c2)cc1

IC50 [5]: 8.1 nM
Compound: Nc1cc(-c2cccc(-n3ccc4cc(C5CC5)cc(F)c4c3=O)c2CO)nc(Nc2cn[nH]c2)n1

Stability [1]: Unstable
Stability [2]: Unstable
IC50 [3]: 6.1 nM
IC50 [4]: > 10 µM
Compound: COc1cc(Nc2nccc(-c3cccc(NC(=O)c4ccc(C(C)(C)C)cc4)c3C)n2)cc(OC)c1OC

Stability [1]: Unstable
Stability [2]: Unstable
IC50 [3]: 52 nM
IC50 [4]: > 10 µM
Compound: CC(C)(C)c1ccc(C(=O)Nc2cccc(-c3ccnc(Nc4ccc5cc[nH]c5c4)n3)c2)cc1

IC50 [5]: 12.9 nM
IC50 [6]: 0.6 nM
Compound: Nc1cc(-c2cccc(-n3ccc4cc(C5CC5)cc(F)c4c3=O)c2CO)nc(Nc2ccc(N3CCOCC3)cc2)n1

IC50 [5]: 11 nM
IC50 [6]: 0.6 nM
Papp [7]: 5.7 ×10⁻⁶ cm/s
Compound: CC(C)(C)n1cc(Nc2nc(N)cc(-c3cccc(-n4ccc5cc(C6CC6)cc(F)c5c4=O)c3CO)n2)cn1
